Data: patent US9745328B2, “Flap modulators” (JANSSEN PHARMACEUTICA NV, priority 2013, dated 2017)
Where a name gives a salt, the structure may show the parent alone.

Each compound was assayed against human FLAP (Homo sapiens (Human), UniProt P20292) (assay: FLAP binding assay (HTRF format)). Conditions: Table 6 (additional runs), human FLAP wild type.
In short: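 Samples were run in duplicate on each of two assay plates, the results were averaged, and the signal was expressed as an HTRF ratio.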

human FLAP, sequence (P20292 whole entry): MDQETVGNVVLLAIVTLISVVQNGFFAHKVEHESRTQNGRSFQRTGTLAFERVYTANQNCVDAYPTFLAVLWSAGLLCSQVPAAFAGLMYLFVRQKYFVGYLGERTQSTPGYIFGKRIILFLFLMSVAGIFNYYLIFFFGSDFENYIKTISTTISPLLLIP

In order of rising Ki:
1. Nc1cnc(-c2ccc(-c3ccccc3S(=O)(=O)NC3(CO)CCCC3)cc2F)cn1 [Example 179]  0.4 nM
2. CNS(=O)(=O)c1cc(C(F)(F)F)ccc1-c1ccc(-c2cnc(N)cn2)c(F)c1 [Example 208, 4′-(5-Aminopyrazin-2-yl)-3′-fluoro-N-methyl-4-(trifluoromethyl)biphenyl-2-sulfonamide]  0.4 nM
3. Nc1cnc(-c2ccc(-c3ccc(C(F)(F)F)cc3S(=O)(=O)NCCO)cc2F)cn1 [Example 210, 4′-(5-aminopyrazin-2-yl)-3′-fluoro-N-(2-hydroxyethyl)-4-(trifluoromethyl)biphenyl-2-sulfonamide]  0.4 nM
4. Nc1cnc(-c2ccc(-c3ccccc3S(=O)(=O)N3CCN(c4cnccn4)CC3)cc2F)cn1 [Example 176, 5-{3-Fluoro-2′-[(4-pyrazin-2-ylpiperazin-1-yl)sulfonyl]biphenyl-4-yl}pyrazin-2-amine]  0.5 nM
5. Nc1cnc(-c2ccc(-c3ccccc3S(=O)(=O)N3CCN(c4ncccn4)CC3)cc2F)cn1 [Example 177]  0.5 nM
6. CCNS(=O)(=O)c1cc(C(F)(F)F)ccc1-c1ccc(-c2cnc(N)cn2)c(F)c1 [Example 211, 4′-(5-Aminopyrazin-2-yl)-N-ethyl-3′-fluoro-4-(trifluoromethyl)biphenyl-2-sulfonamide]  0.5 nM
7. Nc1cnc(-c2ccc(-c3ccccc3Sc3ccnc(N)n3)cc2F)cn1 [Example 242, 4-{[4′(5-Aminopyrazin-2-yl)-3′-fluorobiphenyl-2-yl]sulfanyl}pyrimidin-2-amine hydrochloride]  0.7 nM
8. Nc1cnc(-c2ccc(-c3ccccc3Sc3ncncc3N)cc2F)cn1 [Example 217, 4-{[4′-(5-Aminopyrazin-2-yl)-3′-fluorobiphenyl-2-yl]sulfanyl}pyrimidin-5-amine hydrochloride]  1.2 nM
9. Nc1cnc(-c2ccc(-c3ccccc3Sc3nccc(N)n3)cc2F)cn1 [Example 216, 2-{1,4′-(5-Aminopyrazin-2-yl)-3′-fluorobiphenyl-2-yl]sulfanyl}pyrimidin-4-amine hydrochloride]  2.2 nM
10. Nc1cnc(-c2ccc(-c3ccccc3Sc3ncccn3)cc2F)cn1 [Example 213, 5-[3-Fluoro-2′-(pyrimidin-2-ylsulfanyl)biphenyl-4-yl]pyrazin-2-amine hydrochloride]  2.4 nM
11. Nc1cnc(-c2ccc(-c3ccccc3Sc3cc(N)ncn3)cc2F)cn1 [Example 215, 6-{[4′-(5-Aminopyrazin-2-yl)-3′-fluorobiphenyl-2-yl]sulfanyl}pyrimidin-4-amine hydrochloride]  2.4 nM
12. Nc1cnc(-c2ccc(-c3ccccc3CSc3ccc(N)nn3)cc2F)cn1 [Example 240, 6-(((4′-(5-aminopyrazin-2-yl)-3′-fluoro-[1,1′-biphenyl]-2-yl)methyl)thio)pyridazin-3-amine hydrochloride]  2.4 nM
13. Nc1cnc(-c2ccc(-c3ccccc3Sc3cnccn3)cc2F)cn1 [Example 218, 5-[3-Fluoro-2′-(pyrazin-2-ylsulfanyl)biphenyl-4-yl]pyrazin-2′ amine hydrochloride]  3.3 nM
14. Nc1cnc(-c2ccc(-c3ccccc3CSc3ccncn3)cc2F)cn1 [Example 243, 5-(3-fluoro-2′-((pyrimidin-4-ylthio)methyl)-[1,1′-biphenyl]-4-yl)pyrazin-2-amine hydrochloride]  3.3 nM
15. CC(C)(CO)NS(=O)(=O)c1ccccc1-c1ccc(-c2cnc(N)nc2)c(F)c1 [Example 280, 4′-(2-.Aminopyrimidin-5-yl)-3′-fluoro-N-(2-hydroxy-1,1-dimethylethyl)biphenyl-2-sulfonamide trifluoroacetic acid salt]  3.3 nM
16. Nc1ncc(-c2ccc(-c3ccccc3S(=O)(=O)Nc3ccccc3)cc2F)cn1 [Example 285, 4′-(2-Aminopyrimidin-5-yl)-3′-fluoro-N-phenylbiphenyl-2-sulfonamide trifluoroacetic acid salt]  3.3 nM
17. Nc1cnc(-c2ccc(-c3ccccc3SCCNC(=O)c3ccccc3)cc2F)cn1 [Example 204, N-(2-{[4′-(5-Aminopyrazin-2-yl)-3′-fluorobiphenyl-2-yl]sulfanyl}ethyl)benzamide]  4.5 nM
18. CC(C)(CO)CNS(=O)(=O)c1ccccc1-c1ccc(-c2cnc(N)nc2)c(F)c1 [Example 251, 4′-(2-Aminopyrimidin-5-yl)-3′-fluoro-N-(3-hydroxy-2,2-dimethylpropyl)biphenyl-2-sulfonamide]  4.5 nM
19. CC(C)N(CCO)S(=O)(=O)c1ccccc1-c1ccc(-c2cnc(N)nc2)c(F)c1 [Example 261, 4′-(2-Aminopyrimidin-5-yl)-3′-fluoro-N-(2-hydroxyethyl)-N-(1-methylethyl)biphenyl-2-sulfonamide]  5.6 nM
20. Nc1cnc(-c2ccc(-c3ccccc3NS(=O)(=O)N3CCCC3)cc2F)cn1 [Example 181, N-[4′-(5-Aminopyrazin-2-yl)-3′-fluorobiphenyl-2-yl]pyrroildine-1-sulfonamide]  6.7 nM
21. Nc1cnc(-c2ccc(-c3ccccc3S(=O)(=O)C3CC3)cc2F)cn1 [Example 197, 5-[2′-(Cyclopropylsulfonyl)-3-fluorobiphenyl-4-yl]pyrazin-2-amine]  7.1 nM
22. CC(CO)(CO)NS(=O)(=O)c1ccccc1-c1ccc(-c2cnc(N)nc2)c(F)c1 [Example 255, 4′-(2-Aminopyrimidin-5-yl)-3′-fluoro-N-[2-hydroxy-1-(hydroxymethyl)-1-methylethyl]biphenyl-2-sulfonamide]  8.1 nM
23. Nc1cnc(-c2ccc(-c3ccccc3S(=O)(=O)N3CC[C@H](O)C3)cc2F)cn1 [Example 184, (3S)-1-{[4′-(5-Aminopyrazin-2-yl)-3′-fluorobiphenyl-2-yl]sulfonyl}pyrrolidin-3-ol]  8.9 nM
24. Nc1cnc(-c2ccc(-c3ccccc3S(=O)(=O)N3CC[C@@H](O)C3)cc2F)cn1 [Example 185, (3R)-1-{[4′-(5-Aminopyrazin-2-yl)-3′-fluoroblphenyl-2-yl]sulfonyl}pyrrolidin-3-ol]  9.5 nM
25. CC(C)(O)CNS(=O)(=O)c1ccccc1-c1ccc(-c2cnc(N)nc2)c(F)c1 [Example 272, 4′-(2-Aminopyrimidin-5-y)-3′-fluoro-N-(2-hydroxy-2-methylpropyl)biphenyl-2-sulfonamide trifluoroacetic acid salt]  26.9 nM
26. CC(C)CS(=O)(=O)c1ccccc1-c1ccc(-c2cnc(N)cn2)c(F)c1 [Example 193, 5-{3-Fluoro-2′-[(2-methylpropyl)sulfonyyl]iphenyl-4-yl}pyrazin-2-amine]  30.9 nM
27. Nc1ncc(-c2ccc(-c3ccccc3S(=O)(=O)N3CC(O)C3)cc2F)cn1 [Example 265, 1-{[4′-(2-Aminopyrimidin-5-yl)-3′-fluorobiphenyl-2-yl]sulfonyl}azetidin-3-ol trifluoroacetic acid salt]  35.5 nM
28. CCCS(=O)(=O)c1ccccc1-c1ccc(-c2cnc(N)cn2)c(F)c1 [Example 192, 5-[3-Fluoro-2′-(propylsulfonyl)biphenyl-4-yl]pyrazin-2-amine]  48.3 nM
29. CC[C@@H](CO)NS(=O)(=O)c1ccccc1-c1ccc(-c2cnc(N)nc2)c(F)c1 [Example 248, 4′-(2-Aminopyrimidin-5-yl)-3′-fluoro-N-[(1S)-1-(hydroxymethyl)propyl]biphenyl-2-sulfonamide]  56.8 nM
30. Nc1ncc(-c2ccc(-c3ccccc3S(=O)(=O)N3CCN(C4CC4)CC3)cc2F)cn1 [Example 281, 5-{2′-[(4-Cyclopropylpiperazin-1-yl)sulfonyl]-3-fluorobiphenyl-4-yl}pyrimidin-2-amine trifluoroacetic acid salt]  60.8 nM
31. Nc1cnc(-c2ccc(-c3ccccc3SC(F)(F)F)cc2F)cn1 [Example 189, 5-{3-Fluoro-2′-[(trifluoromethyl)-sulfanyl]biphenyl-4-yl}pyrazin-2-amine]  63.2 nM
32. CC(C)(C)Sc1ccccc1-c1ccc(-c2cnc(N)cn2)c(F)c1 [Example 190, 5-[2′-(tert-Butylsulfanyl)-3-fluorobiphenyl-4-yl]pyrazin-2-amine]  66.2 nM
33. Nc1ncc(-c2ccc(-c3ccccc3S(=O)(=O)N[C@H]3CCNC3=O)cc2F)cn1 [Example 263, 4′-(2-Aminopyrimidin-5-yl)-3′-fluoro-N-[(3S)-2-oxopyrrolidin-3-yl]biphenyl-2-sulfonamide]  127 nM
34. Nc1ncc(-c2ccc(-c3ccccc3S(=O)(=O)N[C@@H]3CCCNC3=O)cc2F)cn1 [Example 266, 4′-(2-Aminopyrimidin-5-yl)-3′-fluoro-N-[(3R)-2-oxopiperidin-3-yl]biphenyl-2-sulfonamide trifluoroacetic acid salt]  133 nM
35. CC(C)(C)S(=O)(=O)c1ccccc1-c1ccc(-c2cnc(N)cn2)c(F)c1 [Example 194, 5-[2′-(tert-Butylsulfonyl)-3-fluorobiphenyl-4-yl]pyrazin-2-amine]  156 nM
36. Nc1ncc(-c2ccc(-c3ccccc3S(=O)(=O)N[C@H]3CCCNC3=O)cc2F)cn1 [Example 267, 4′-(2-Aminopyrimidin-5-yl)-3′-fluoro-N-[(3S)-2-oxopiperidin-3-yl]biphenyl-2-sulfonamide trifluoroacetic acid salt]  185 nM
37. C[C@H](O)CNS(=O)(=O)Cc1ccccc1-c1ccc(-c2cnc(N)cn2)c(F)c1 [Example 227, (S)-1-[4′-(5-Aminopyrazin-2-yl)-3′-fluorobiphenyl-2-yl]-N-[(2S)-2-hydroxypropyl]methanesulfonamide hydrochloride]  670 nM
38. C[C@@H](O)CNS(=O)(=O)Cc1ccccc1-c1ccc(-c2cnc(N)cn2)c(F)c1 [Example 228, (R)-1-[4′-(5-Aminopyrazin-2-yl)-3′-fluorobiphenyl-2-yl]-N-[(2S)-2-hydroxypropyl]methanesulfonamide]  1060 nM
39. Nc1cnc(-c2ccc(-c3ccccc3CS(=O)(=O)N3CCC(N)CC3)cc2F)cn1 [Example 229, 5-(2′-{[(4-Aminopiperidin.-1-yl)sulfonyl]methyl}-3-fluorobiphenyl-4-yl)pyrazin-2-amine hydrochloride]  1070 nM
40. Nc1cnc(-c2ccc(-c3ccccc3N)cc2F)cn1 [Example 178, 5-(2′-Amino-3-fluorobiphenyl-4-yl)pyrazin-2-amine]  ~1320 nM

Same assay, conditions: human FLAP wild type, a calculated value of 0.000 indicates Ki less than 1 nM

Nc1cnc(-c2ccc(-c3ccccc3S(=O)(=O)N3CCN(c4cnccn4)CC3)cc2F)cn1 [Example 176, 5-{3-Fluoro-2′-[(4-pyrazin-2-ylpiperazin-1-yl)sulfonyl]biphenyl-4-yl}pyrazin-2-amine] and Nc1cnc(-c2ccc(-c3ccccc3S(=O)(=O)N3CCN(c4ncccn4)CC3)cc2F)cn1 [Example 177] cannot be ordered by Ki: less than 1 nM for the first, less than 1 nM for the second.

Nc1cnc(-c2ccc(-c3ccccc3S(=O)(=O)NC3(CO)CCCC3)cc2F)cn1 [Example 179] and Nc1cnc(-c2ccc(-c3ccc(C(F)(F)F)cc3S(=O)(=O)NCCO)cc2F)cn1 [Example 210, 4′-(5-aminopyrazin-2-yl)-3′-fluoro-N-(2-hydroxyethyl)-4-(trifluoromethyl)biphenyl-2-sulfonamide] cannot be ordered by Ki: less than 1 nM for the first, less than 1 nM for the second.

With CNS(=O)(=O)c1cc(C(F)(F)F)ccc1-c1ccc(-c2cnc(N)cn2)c(F)c1 [Example 208, 4′-(5-Aminopyrazin-2-yl)-3′-fluoro-N-methyl-4-(trifluoromethyl)biphenyl-2-sulfonamide] the Ki was less than 1 nM.
